The results in this text go back to ChEMBL document CHEMBL3351497, “Structure Activity Relationships of αv Integrin Antagonists for Pulmonary Fibrosis by Variation in Aryl Substituents” (ACS Med Chem Lett, 2014).

Molecules are shown by their SMILES. Some results are limits rather than exact numbers.

As usually defined, the IC50 is the midpoint of a concentration-inhibition curve. High values mean weaker potency in that assay, low ones greater potency in that assay. As usually defined, the chromatographic logD is lipophilicity estimated from chromatographic retention. What is called logD is lipophilicity at a set pH, counting ionised and neutral species.

One data set deals with Integrin alpha-V/beta-6 (Homo sapiens, UniProt P06756+P18564). Description: Inhibition of integrin alphavbeta6 (unknown origin)-mediated K562 cell adhesion to LAPb1 coated surface by fluorescence analysis. In kind it is cell-based.
For another data set, the target named is Integrin alpha-V/beta-5 (Homo sapiens, UniProt P06756+P18084). Description: Inhibition of integrin alphavbeta5 (unknown origin)-mediated K562 cell adhesion to vitronectin coated surface by fluorescence analysis. In kind it is cell-based.
Data set [1] in a line: Lipophilicity, log D of the compound by HPLC chromatographic method. In kind it is physicochemical.
Another data set addresses Integrin alpha-V/beta-8 (Homo sapiens, UniProt P06756+P26012). Put plainly: Inhibition of integrin alphavbeta8 (unknown origin)-mediated K562 cell adhesion to LAPb1 coated surface by fluorescence analysis. Format: cell-based.
The target of the next data set is Integrin alpha-V/beta-3 (Homo sapiens, UniProt P05106+P06756). Description: Inhibition of integrin alphavbeta3 (unknown origin)-mediated K562 cell adhesion to LAPb1 coated surface by fluorescence analysis. In kind it is cell-based.
Sequence of Integrin alpha-V/beta-3 (P05106 27-788 limits assumed): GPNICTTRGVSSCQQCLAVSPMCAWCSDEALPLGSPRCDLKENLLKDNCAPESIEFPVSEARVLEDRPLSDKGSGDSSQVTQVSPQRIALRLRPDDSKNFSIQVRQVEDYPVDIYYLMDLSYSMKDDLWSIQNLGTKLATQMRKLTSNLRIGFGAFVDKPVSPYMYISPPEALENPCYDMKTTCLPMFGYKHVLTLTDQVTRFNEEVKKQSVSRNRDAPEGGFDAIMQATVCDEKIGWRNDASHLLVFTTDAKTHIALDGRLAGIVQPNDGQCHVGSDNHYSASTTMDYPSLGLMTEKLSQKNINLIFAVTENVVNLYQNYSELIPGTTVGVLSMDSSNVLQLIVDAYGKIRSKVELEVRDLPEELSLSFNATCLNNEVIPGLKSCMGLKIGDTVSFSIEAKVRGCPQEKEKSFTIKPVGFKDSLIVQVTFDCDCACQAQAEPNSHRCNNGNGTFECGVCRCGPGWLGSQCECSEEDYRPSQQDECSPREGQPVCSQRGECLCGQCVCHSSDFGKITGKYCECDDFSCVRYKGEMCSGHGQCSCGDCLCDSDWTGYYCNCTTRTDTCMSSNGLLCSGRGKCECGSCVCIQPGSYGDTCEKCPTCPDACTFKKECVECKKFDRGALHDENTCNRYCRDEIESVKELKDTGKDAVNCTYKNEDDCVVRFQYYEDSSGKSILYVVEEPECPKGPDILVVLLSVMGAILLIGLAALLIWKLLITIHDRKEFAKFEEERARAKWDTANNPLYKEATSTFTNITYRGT
Sequence of Integrin alpha-V/beta-3 (P06756 31-889 limits assumed): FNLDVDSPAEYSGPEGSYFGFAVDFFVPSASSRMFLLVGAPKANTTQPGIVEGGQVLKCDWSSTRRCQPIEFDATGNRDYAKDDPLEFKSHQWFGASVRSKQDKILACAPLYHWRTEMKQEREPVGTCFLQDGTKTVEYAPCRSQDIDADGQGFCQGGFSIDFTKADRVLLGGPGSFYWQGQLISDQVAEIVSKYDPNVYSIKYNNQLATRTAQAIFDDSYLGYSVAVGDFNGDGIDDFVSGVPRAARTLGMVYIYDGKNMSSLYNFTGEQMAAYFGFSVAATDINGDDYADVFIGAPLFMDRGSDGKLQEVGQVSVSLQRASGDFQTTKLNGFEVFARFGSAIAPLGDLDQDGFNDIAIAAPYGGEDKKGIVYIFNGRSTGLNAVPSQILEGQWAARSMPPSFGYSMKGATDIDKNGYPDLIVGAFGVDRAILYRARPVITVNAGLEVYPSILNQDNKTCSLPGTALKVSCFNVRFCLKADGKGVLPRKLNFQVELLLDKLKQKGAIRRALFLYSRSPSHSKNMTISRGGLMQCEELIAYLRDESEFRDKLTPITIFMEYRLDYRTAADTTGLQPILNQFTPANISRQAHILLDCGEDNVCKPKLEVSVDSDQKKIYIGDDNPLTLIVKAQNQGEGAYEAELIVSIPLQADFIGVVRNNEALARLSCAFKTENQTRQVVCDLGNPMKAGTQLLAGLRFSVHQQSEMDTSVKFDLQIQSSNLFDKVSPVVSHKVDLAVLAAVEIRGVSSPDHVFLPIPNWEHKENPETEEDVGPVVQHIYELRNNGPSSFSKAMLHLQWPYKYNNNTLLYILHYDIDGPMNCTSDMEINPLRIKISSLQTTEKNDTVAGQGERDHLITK
Sequence of Integrin alpha-V/beta-3 (P06756 891-1048 limits assumed): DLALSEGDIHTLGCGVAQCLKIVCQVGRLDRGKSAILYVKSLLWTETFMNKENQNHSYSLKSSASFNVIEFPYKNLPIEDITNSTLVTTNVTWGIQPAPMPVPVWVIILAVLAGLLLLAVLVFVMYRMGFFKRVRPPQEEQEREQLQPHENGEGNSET

Sequence of Integrin alpha-V/beta-5 (P06756 31-889 limits assumed): as the sequence (P06756 31-889 limits assumed) above
Sequence of Integrin alpha-V/beta-5 (P06756 891-1048 limits assumed): as the sequence (P06756 891-1048 limits assumed) above
Sequence of Integrin alpha-V/beta-5 (P18084 24-799 limits assumed): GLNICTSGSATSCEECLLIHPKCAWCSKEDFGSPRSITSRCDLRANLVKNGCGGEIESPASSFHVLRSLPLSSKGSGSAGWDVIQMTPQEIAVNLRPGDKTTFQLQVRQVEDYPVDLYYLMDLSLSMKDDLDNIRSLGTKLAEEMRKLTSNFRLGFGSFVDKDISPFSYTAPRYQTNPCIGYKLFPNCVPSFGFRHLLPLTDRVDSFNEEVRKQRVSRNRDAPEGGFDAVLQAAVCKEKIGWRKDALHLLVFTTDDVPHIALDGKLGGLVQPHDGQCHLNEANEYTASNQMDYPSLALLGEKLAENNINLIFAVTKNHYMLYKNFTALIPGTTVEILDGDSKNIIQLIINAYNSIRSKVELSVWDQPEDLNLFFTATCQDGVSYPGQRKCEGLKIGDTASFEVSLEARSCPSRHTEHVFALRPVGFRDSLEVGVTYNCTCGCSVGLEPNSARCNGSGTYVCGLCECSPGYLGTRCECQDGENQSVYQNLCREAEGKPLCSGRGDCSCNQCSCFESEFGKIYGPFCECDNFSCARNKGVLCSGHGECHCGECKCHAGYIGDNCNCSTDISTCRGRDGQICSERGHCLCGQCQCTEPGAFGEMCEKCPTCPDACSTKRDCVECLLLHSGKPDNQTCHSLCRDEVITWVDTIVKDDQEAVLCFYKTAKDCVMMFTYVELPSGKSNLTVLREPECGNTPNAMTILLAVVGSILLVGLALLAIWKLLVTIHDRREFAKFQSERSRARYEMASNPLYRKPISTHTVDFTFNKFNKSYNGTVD
Sequence of Integrin alpha-V/beta-8 (P06756 31-889 limits assumed): as the sequence (P06756 31-889 limits assumed) above
Sequence of Integrin alpha-V/beta-8 (P06756 891-1048 limits assumed): as the sequence (P06756 891-1048 limits assumed) above
Sequence of Integrin alpha-V/beta-8 (P26012 43-769 limits assumed): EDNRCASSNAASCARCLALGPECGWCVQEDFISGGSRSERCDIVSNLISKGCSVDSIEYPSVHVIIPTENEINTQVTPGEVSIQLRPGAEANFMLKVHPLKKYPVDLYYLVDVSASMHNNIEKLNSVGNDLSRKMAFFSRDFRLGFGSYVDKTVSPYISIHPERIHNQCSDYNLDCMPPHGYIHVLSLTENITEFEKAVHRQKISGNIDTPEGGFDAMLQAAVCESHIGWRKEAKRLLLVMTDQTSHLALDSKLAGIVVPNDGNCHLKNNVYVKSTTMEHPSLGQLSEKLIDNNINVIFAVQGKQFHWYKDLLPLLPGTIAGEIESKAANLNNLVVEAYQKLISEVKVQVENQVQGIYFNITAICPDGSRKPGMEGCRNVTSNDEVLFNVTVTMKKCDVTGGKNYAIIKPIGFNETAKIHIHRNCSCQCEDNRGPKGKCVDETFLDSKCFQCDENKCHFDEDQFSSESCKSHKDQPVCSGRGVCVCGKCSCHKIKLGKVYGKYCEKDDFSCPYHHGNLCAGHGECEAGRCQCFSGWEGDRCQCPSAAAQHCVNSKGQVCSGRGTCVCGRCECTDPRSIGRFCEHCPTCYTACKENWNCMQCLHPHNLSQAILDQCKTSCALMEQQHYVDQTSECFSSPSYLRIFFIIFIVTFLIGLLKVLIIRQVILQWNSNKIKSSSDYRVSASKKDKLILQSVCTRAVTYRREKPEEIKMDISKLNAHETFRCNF
Sequence of Integrin alpha-V/beta-6 (P06756 31-889 limits assumed): as the sequence (P06756 31-889 limits assumed) above
Sequence of Integrin alpha-V/beta-6 (P06756 891-1048 limits assumed): as the sequence (P06756 891-1048 limits assumed) above
Sequence of Integrin alpha-V/beta-6 (P18564 22-788 limits assumed): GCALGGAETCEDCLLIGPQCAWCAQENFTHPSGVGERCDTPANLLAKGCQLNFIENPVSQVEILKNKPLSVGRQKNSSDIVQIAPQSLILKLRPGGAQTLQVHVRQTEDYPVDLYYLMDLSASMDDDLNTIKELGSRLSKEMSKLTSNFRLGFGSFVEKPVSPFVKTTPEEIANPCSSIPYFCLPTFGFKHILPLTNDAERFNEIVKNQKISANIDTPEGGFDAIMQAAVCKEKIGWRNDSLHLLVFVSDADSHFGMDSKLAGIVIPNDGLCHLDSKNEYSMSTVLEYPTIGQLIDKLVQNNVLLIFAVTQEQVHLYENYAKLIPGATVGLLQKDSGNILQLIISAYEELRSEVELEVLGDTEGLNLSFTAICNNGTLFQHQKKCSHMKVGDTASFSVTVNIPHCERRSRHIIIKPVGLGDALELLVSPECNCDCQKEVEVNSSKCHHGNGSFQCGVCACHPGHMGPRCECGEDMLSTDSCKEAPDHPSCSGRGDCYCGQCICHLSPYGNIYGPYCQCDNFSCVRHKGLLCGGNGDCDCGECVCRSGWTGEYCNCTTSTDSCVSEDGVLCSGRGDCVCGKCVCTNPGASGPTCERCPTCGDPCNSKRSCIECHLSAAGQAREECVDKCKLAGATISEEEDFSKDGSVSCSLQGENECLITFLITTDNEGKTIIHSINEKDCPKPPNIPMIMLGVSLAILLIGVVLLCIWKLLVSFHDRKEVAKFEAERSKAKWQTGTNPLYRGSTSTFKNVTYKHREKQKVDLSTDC

The compound `N=C(N)Nc1cccc(C(=O)NCC(=O)NC(CC(=O)O)c2cc(Cl)cc(Cl)c2)c1` (stereo unspecified) gave an IC50 at Integrin alpha-V/beta-6 of 158 nM.
Take `O=C(O)C[C@H](NC(=O)CCCCc1ccc2c(n1)NCCC2)c1cccc(C(F)(F)F)c1`: the half-maximal inhibitory concentration (IC50) on Integrin alpha-V/beta-5 was 63.1 nM; at Integrin alpha-V/beta-8, 126 nM; against Integrin alpha-V/beta-3, 100 nM; on Integrin alpha-V/beta-6, 79.4 nM. This compound also returned a chromatographic logD in data set [1] of 2.72.
For `O=C(O)C[C@@H](NC(=O)CCCCc1ccc2c(n1)NCCC2)c1cccc(C(F)(F)F)c1` the same measures were 2000 nM, over 10000 nM, over 10000 nM, 6310 nM and 2.61.
For `O=C(O)CC(NC(=O)CCCCc1ccc2c(n1)NCCC2)c1ccc(Cl)cc1` (racemic) the same measures were 126 nM, 631 nM, 126 nM, 398 nM and 2.14.
Consider `O=C(O)CC(NC(=O)CCCCc1ccc2c(n1)NCCC2)c1ccccc1F` (racemic), for which the 50% inhibitory concentration (IC50) on Integrin alpha-V/beta-5 is 100 nM; on Integrin alpha-V/beta-8, 3980 nM; on Integrin alpha-V/beta-3, 316 nM; on Integrin alpha-V/beta-6, 1000 nM. This compound gave a chromatographic logD in data set [1] of 1.88.
For `O=C(O)CC(NC(=O)CCCCc1ccc2c(n1)NCCC2)c1ccccc1Cl` (racemic) the same measures were 1580 nM, over 10000 nM, 2000 nM, over 10000 nM and 1.92.
For `Cc1ccccc1C(CC(=O)O)NC(=O)CCCCc1ccc2c(n1)NCCC2` (racemic) the same measures were 20 nM, 1260 nM, 50.1 nM, 398 nM and 1.85.
As for `COc1ccccc1C(CC(=O)O)NC(=O)CCCCc1ccc2c(n1)NCCC2` (racemic), the IC50 was 501 nM at Integrin alpha-V/beta-5, over 10000 nM at Integrin alpha-V/beta-8, 501 nM against Integrin alpha-V/beta-3 and over 10000 nM against Integrin alpha-V/beta-6. The same compound yielded a chromatographic logD in data set [1] of 1.83.
`O=C(O)CC(NC(=O)CCCCc1ccc2c(n1)NCCC2)c1cccc(Cl)c1` (racemic): the IC50 is 25.1 nM at Integrin alpha-V/beta-5, 501 nM on Integrin alpha-V/beta-8, 79.4 nM on Integrin alpha-V/beta-3 and 251 nM on Integrin alpha-V/beta-6. The same compound showed a chromatographic logD in data set [1] of 2.3.
For `Cc1cccc(C(CC(=O)O)NC(=O)CCCCc2ccc3c(n2)NCCC3)c1` (racemic) the same measures were 50.1 nM, 631 nM, 158 nM, 398 nM and 1.95.
On to `O=C(O)CC(NC(=O)CCCCc1ccc2c(n1)NCCC2)c1ccc(F)cc1` (racemic), for which the 50% inhibitory concentration (IC50) at Integrin alpha-V/beta-5 is 63.1 nM; at Integrin alpha-V/beta-8, 501 nM; at Integrin alpha-V/beta-3 it was 100 nM; against Integrin alpha-V/beta-6, 501 nM. Also, the chromatographic logD in data set [1] was 1.75.
With `Cc1ccc(C(CC(=O)O)NC(=O)CCCCc2ccc3c(n2)NCCC3)cc1` (racemic), the IC50 against Integrin alpha-V/beta-5 was 100 nM; against Integrin alpha-V/beta-8 it was 1000 nM; against Integrin alpha-V/beta-3, 39.8 nM; against Integrin alpha-V/beta-6, 794 nM. Besides, the chromatographic logD in data set [1] worked out at 1.97.
For `N#Cc1ccc(C(CC(=O)O)NC(=O)CCCCc2ccc3c(n2)NCCC3)cc1` (racemic) the same measures were 398 nM, 794 nM, 79.4 nM, 398 nM and 1.47.
For `O=C(O)CC(NC(=O)CCCCc1ccc2c(n1)NCCC2)c1ccc(C(F)(F)F)cc1` (racemic) the same measures were 316 nM, 794 nM, 251 nM, 631 nM and 2.72.
For `O=C(O)CC(NC(=O)CCCCc1ccc2c(n1)NCCC2)c1ccc(OC(F)(F)F)cc1` (racemic) the same measures were 501 nM, 794 nM, 158 nM, 631 nM and 2.85.
`CS(=O)(=O)c1ccc(C(CC(=O)O)NC(=O)CCCCc2ccc3c(n2)NCCC3)cc1` (racemic): the half-inhibitory concentration (IC50) at Integrin alpha-V/beta-5 was 398 nM; at Integrin alpha-V/beta-8, 794 nM; at Integrin alpha-V/beta-3 it was 126 nM; against Integrin alpha-V/beta-6 it was 631 nM. This compound registered a chromatographic logD in data set [1] of 1.08.
For `O=C(O)CC(NC(=O)CCCCc1ccc2c(n1)NCCC2)c1ccc(-c2ccccc2)cc1` (racemic) the same measures were 631 nM, 316 nM, 100 nM, 398 nM and 3.1.
`N#Cc1cccc(C(CC(=O)O)NC(=O)CCCCc2ccc3c(n2)NCCC3)c1` (racemic): the IC50 against Integrin alpha-V/beta-5 was 39.8 nM; against Integrin alpha-V/beta-8 it was 1000 nM; against Integrin alpha-V/beta-3 it was 200 nM; against Integrin alpha-V/beta-6, 251 nM. This compound showed a chromatographic logD in data set [1] of 1.67.
For `O=C(O)CC(NC(=O)CCCCc1ccc2c(n1)NCCC2)c1cccc(C(F)(F)F)c1` (racemic) the same measures were 39.8 nM, 158 nM, 200 nM, 100 nM and 2.73.
On to `O=C(O)CC(NC(=O)CCCCc1ccc2c(n1)NCCC2)c1cccc(OC(F)(F)F)c1` (racemic), for which the IC50 is 79.4 nM at Integrin alpha-V/beta-5, 251 nM against Integrin alpha-V/beta-8, 398 nM on Integrin alpha-V/beta-3 and 200 nM on Integrin alpha-V/beta-6. Besides, the chromatographic logD in data set [1] was 3.11.
For `O=C(O)CC(NC(=O)CCCCc1ccc2c(n1)NCCC2)c1cccc(Cl)c1Cl` (racemic) the same measures were 501 nM, 10000 nM, 3980 nM, 7940 nM and 2.73.
For `O=C(O)CC(NC(=O)CCCCc1ccc2c(n1)NCCC2)c1ccc(Cl)c(Cl)c1` (racemic) the same measures were 100 nM, 200 nM, 50.1 nM, 200 nM and 2.62.
Take `O=C(O)CC(NC(=O)CCCCc1ccc2c(n1)NCCC2)c1cc(Cl)cc(Cl)c1` (racemic): the half-inhibitory concentration (IC50) against Integrin alpha-V/beta-5 is 200 nM; against Integrin alpha-V/beta-8, 251 nM; on Integrin alpha-V/beta-3, 398 nM; against Integrin alpha-V/beta-6, 251 nM. The compound further yielded a chromatographic logD in data set [1] of 2.93.
On to `Cc1ccc(C(CC(=O)O)NC(=O)CCCCc2ccc3c(n2)NCCC3)cc1C` (racemic), for which the concentration for half-maximal inhibition (IC50) on Integrin alpha-V/beta-5 was 63.1 nM; at Integrin alpha-V/beta-8 it was 501 nM; at Integrin alpha-V/beta-3, 63.1 nM; against Integrin alpha-V/beta-6 it was 200 nM. This compound yielded a chromatographic logD in data set [1] of 2.29.
For the compound `O=C(O)CC(NC(=O)CCCCc1ccc2c(n1)NCCC2)c1ccc2c(c1)CCC2` (racemic), the IC50 against Integrin alpha-V/beta-5 was 79.4 nM; against Integrin alpha-V/beta-8 it was 398 nM; against Integrin alpha-V/beta-3 it was 126 nM; on Integrin alpha-V/beta-6 it was 158 nM. The chromatographic logD in data set [1] was determined as 2.52.
For `Cc1cc(C)cc(C(CC(=O)O)NC(=O)CCCCc2ccc3c(n2)NCCC3)c1` (racemic) the same measures were 398 nM, 631 nM, 398 nM, 501 nM and 2.43.
For `COc1ccc(C(CC(=O)O)NC(=O)CCCCc2ccc3c(n2)NCCC3)cc1OC` (racemic) the same measures were 63.1 nM, 398 nM, 100 nM, 316 nM and 1.37.
For `O=C(O)CC(NC(=O)CCCCc1ccc2c(n1)NCCC2)c1ccc2c(c1)OCO2` (racemic) the same measures were 12.6 nM, 794 nM, 15.8 nM, 251 nM and 1.47.
On to `O=C(O)CC(NC(=O)CCCCc1ccc2c(n1)NCCC2)c1ccc(Cl)c(C(F)(F)F)c1` (racemic), for which the half-inhibitory concentration (IC50) is 126 nM at Integrin alpha-V/beta-5, 251 nM against Integrin alpha-V/beta-8, 316 nM against Integrin alpha-V/beta-3 and 100 nM against Integrin alpha-V/beta-6. The chromatographic logD in data set [1] is 3.1.
Regarding `O=C(O)CC(NC(=O)CCCCc1ccc2c(n1)NCCC2)c1ccc(Cl)c(C(F)(F)F)c1` (single isomer, unassigned; enantiomer 1), the IC50 against Integrin alpha-V/beta-5 was 63.1 nM; on Integrin alpha-V/beta-8, 126 nM; on Integrin alpha-V/beta-3, 158 nM; against Integrin alpha-V/beta-6, 63.1 nM. For the same compound, in data set [1], the logD is on record as 3.28.
Turning to `O=C(O)CC(NC(=O)CCCCc1ccc2c(n1)NCCC2)c1cc(Cl)cc(Cl)c1` (single isomer, unassigned; enantiomer 2), the IC50 at Integrin alpha-V/beta-5 is 251 nM; on Integrin alpha-V/beta-8 it was 100 nM; on Integrin alpha-V/beta-3, 126 nM; at Integrin alpha-V/beta-6, 158 nM. For the same compound, in data set [1], the log distribution coefficient (logD) was 2.8.
Turning to `O=C(O)CC(NC(=O)CCCCc1ccc2c(n1)NCCC2)c1ccc(Cl)c(C(F)(F)F)c1` (single isomer, unassigned; enantiomer 2), the 50% inhibitory concentration (IC50) against Integrin alpha-V/beta-5 is 631 nM; against Integrin alpha-V/beta-8, over 10000 nM; against Integrin alpha-V/beta-3, 1580 nM; on Integrin alpha-V/beta-6, over 10000 nM. This compound yielded a logD in data set [1] of 3.25.
As for `O=C(O)CC(NC(=O)CCCCc1ccc2c(n1)NCCC2)c1cc(Cl)cc(Cl)c1` (stereo in doubt; 37E1), the IC50 against Integrin alpha-V/beta-5 is 1000 nM; against Integrin alpha-V/beta-8, over 10000 nM; at Integrin alpha-V/beta-3 it was over 10000 nM; at Integrin alpha-V/beta-6, 6310 nM. The same compound registered a pH-dependent lipophilicity (logD) in data set [1] of 2.97.
